In patent publication EP0195841A1, “Quinolinecarboxylic acid derivatives and process for their preparation” (KYORIN PHARMACEUTICAL CO., LTD., priority 1985, dated 1986):
Where two headings read alike, the source gives them in different places.

Assays:
Assay in all cases: Antibacterial spectra, MIC by standard method of Japan Society of Chemotherapy
Type in all cases: cell-based
E. coli ATCC 10536 = details: 10^6 cells/ml; for MIC: Escherichia coli, ATCC10536, Gram −, read-out: Minimum Inhibitory Concentration; for ratio of activity per that of Ciprofloxacin (bracketed number): Gram −
[1] = test system: S. pyogenes IID 689 (S-8); details: 10^6 cells/ml; for ratio of activity per that of Ciprofloxacin (bracketed number): Gram +; for MIC: Streptococcus pyogenes, IID689, Gram +, read-out: Minimum Inhibitory Concentration
S. epidermidis IID 866 = details: 10^6 cells/ml; for ratio of activity per that of Ciprofloxacin (bracketed number): Gram +; for MIC: Staphylococcus epidermidis, IID866, Gram +, read-out: Minimum Inhibitory Concentration
[2] = test system: Alcaligenes faecalis 0104002; details: Gram −, 10^6 cells/ml; for MIC: read-out: Minimum Inhibitory Concentration
[3] = test system: Proteus vulgaris IFO 3167
[4] = test system: Streptococcus pyogenes IID 692; details: 10^6 cells/ml; for ratio of activity per that of Ciprofloxacin (bracketed number): Gram +; for MIC: IID692, Gram +, read-out: Minimum Inhibitory Concentration
Shigella sonnei IID 969 = details: 10^6 cells/ml; for ratio of activity per that of Ciprofloxacin (bracketed number): Gram −; for MIC: IID969, Gram −, read-out: Minimum Inhibitory Concentration
Procedure: Experiment 1. Antibacterial spectra
Antibacterial activity was determined with the standard method recommended by Japan Society of Chemotherapy.

[5] = test system: Citrobacter freundii IID 976; details: 10^6 cells/ml; for ratio of activity per that of Ciprofloxacin (bracketed number): Gram −; for MIC: IID976, Gram −, read-out: Minimum Inhibitory Concentration
S. pneumoniae 2054 = details: Gram +, 10^6 cells/ml; for MIC: Streptococcus pneumoniae, read-out: Minimum Inhibitory Concentration
P. morganii IID 602 = details: 10^6 cells/ml; for MIC: Morganella morganii, IID602, Gram −, read-out: Minimum Inhibitory Concentration; for ratio of activity per that of Ciprofloxacin (bracketed number): Gram −
[6] = test system: Bacteroides fragilis 25285; details: Gram −, 10^6 cells/ml; for MIC: read-out: Minimum Inhibitory Concentration
E. coli NIHJ JC-2 = details: E. coli NIHJ JC-2, Gram −, 10^6 cells/ml; for MIC: Escherichia coli, NIHJJC2, read-out: Minimum Inhibitory Concentration
[7] = test system: Acinetobacter anitratus IID 876; details: 10^6 cells/ml; for MIC: Acinetobacter calcoaceticus, IID876, Gram −, read-out: Minimum Inhibitory Concentration; for ratio of activity per that of Ciprofloxacin (bracketed number): Gram −
[8] = test system: S. aureus IID 670 (Terajima); details: 10^6 cells/ml; for ratio of activity per that of Ciprofloxacin (bracketed number): Gram +; for MIC: Staphylococcus aureus, IID670, Gram +, read-out: Minimum Inhibitory Concentration
[9] = test system: Bacillus subtilis PCI 219; details: 10^6 cells/ml; for MIC: PCI219, Gram +, read-out: Minimum Inhibitory Concentration; for ratio of activity per that of Ciprofloxacin (bracketed number): Gram +
[10] = test system: Enterobacter cloacae IID 977; details: 10^6 cells/ml; for ratio of activity per that of Ciprofloxacin (bracketed number): Gram −; for MIC: IID977, Gram −, read-out: Minimum Inhibitory Concentration
[11] = test system: Staphylococcus aureus 209 P; details: Gram +, 10^6 cells/ml; for MIC: read-out: Minimum Inhibitory Concentration
[12] = test system: Klebsiella pneumoniae KY 6445; details: 10^6 cells/ml; for ratio of activity per that of Ciprofloxacin (bracketed number): Gram −; for MIC: KY6445, Gram −, read-out: Minimum Inhibitory Concentration
[13] = test system: Pseudomonas aeruginosa V-1; details: 10^6 cells/ml; for ratio of activity per that of Ciprofloxacin (bracketed number): Gram −; for MIC: V1, Gram −, read-out: Minimum Inhibitory Concentration
[14] = test system: Bacteroides fragilis 0558; details: Gram −, 10^6 cells/ml; for MIC: read-out: Minimum Inhibitory Concentration
[15] = test system: Bacteroides fragilis GM 7000; details: 10^6 cells/ml; for MIC: GM7000, Gram −, read-out: Minimum Inhibitory Concentration; for ratio of activity per that of Ciprofloxacin (bracketed number): Gram −
[16] = test system: Serratia marcescens IID 618; details: 10^6 cells/ml; for ratio of activity per that of Ciprofloxacin (bracketed number): Gram −; for MIC: IID618, Gram −, read-out: Minimum Inhibitory Concentration
[17] = test system: Yersinia enterocolitica IID 981; details: 10^6 cells/ml; for ratio of activity per that of Ciprofloxacin (bracketed number): Gram −; for MIC: IID981, Gram −, read-out: Minimum Inhibitory Concentration
P. mirabilis IID 994 = details: 10^6 cells/ml; for ratio of activity per that of Ciprofloxacin (bracketed number): Gram −; for MIC: Proteus mirabilis, IID994, Gram −, read-out: Minimum Inhibitory Concentration
S. faecalis IID 682 = details: 10^6 cells/ml; for MIC: Enterococcus faecalis, IID682, Gram +, read-out: Minimum Inhibitory Concentration; for ratio of activity per that of Ciprofloxacin (bracketed number): Gram +
[18] = test system: Pseudomonas aeruginosa IFO 12689; details: 10^6 cells/ml; for ratio of activity per that of Ciprofloxacin (bracketed number): Gram −; for MIC: IFO12689, Gram −, read-out: Minimum Inhibitory Concentration
[19] = test system: Salmonella enteritidis IID 604; details: Gram −, 10^6 cells/ml; for MIC: Salmonella enterica, read-out: Minimum Inhibitory Concentration
[20] = IFO3167, Proteus vulgaris IFO 3167, Gram −, 10^6 cells/ml, read-out: Minimum Inhibitory Concentration
[21] = Proteus vulgaris IFO 3167, Gram −, 10^6 cells/ml

O=C(O)c1cn(C2CC2)c2c(Cl)c(N3CCNCC3)c(F)cc2c1=O [Example 25, 8-Chloro-l-cyclopropyl-6-fluoro-l,4-dihydro-4-oxo-7-(1-piperazinyl)quinoline-3-carboxylic acid]
0.1 µg/mL: MIC [8]
0.2 µg/mL: MIC [1] | MIC [6] | MIC [14] | MIC (S. faecalis IID 682)
0.0125 µg/mL: MIC [5] | MIC (P. morganii IID 602) | MIC [9] | MIC [12] | MIC (P. mirabilis IID 994) | MIC [19]
2: ratio of activity per that of Ciprofloxacin (bracketed number) (E. coli ATCC 10536) | ratio of activity per that of Ciprofloxacin (bracketed number) [1] | ratio of activity per that of Ciprofloxacin (bracketed number) [2] | ratio of activity per that of Ciprofloxacin (bracketed number) [4] | ratio of activity per that of Ciprofloxacin (bracketed number) [10] | ratio of activity per that of Ciprofloxacin (bracketed number) [17] | ratio of activity per that of Ciprofloxacin (bracketed number) [19]
8: ratio of activity per that of Ciprofloxacin (bracketed number) (S. epidermidis IID 866) | ratio of activity per that of Ciprofloxacin (bracketed number) [11] | ratio of activity per that of Ciprofloxacin (bracketed number) [15]
16: ratio of activity per that of Ciprofloxacin (bracketed number) [6] | ratio of activity per that of Ciprofloxacin (bracketed number) [14] | ratio of activity per that of Ciprofloxacin (bracketed number) [16]
0.39 µg/mL: MIC [4] | MIC (S. pneumoniae 2054) | MIC [15] | MIC [18]
0.025 µg/mL: MIC [10] | MIC [16] | MIC [17]
≤ 6 ng/mL: MIC [3, 20] | MIC (E. coli NIHJ JC-2)
1: ratio of activity per that of Ciprofloxacin (bracketed number) [3, 21] | ratio of activity per that of Ciprofloxacin (bracketed number) (Shigella sonnei IID 969) | ratio of activity per that of Ciprofloxacin (bracketed number) (E. coli NIHJ JC-2) | ratio of activity per that of Ciprofloxacin (bracketed number) [12] | ratio of activity per that of Ciprofloxacin (bracketed number) (P. mirabilis IID 994) | ratio of activity per that of Ciprofloxacin (bracketed number) [18]
0.05 µg/mL: MIC (S. epidermidis IID 866) | MIC [7] | MIC [11] | MIC [13]
≤ 0.006 µg/mL: MIC (E. coli ATCC 10536) | MIC (Shigella sonnei IID 969)
0.5: ratio of activity per that of Ciprofloxacin (bracketed number) [5] | ratio of activity per that of Ciprofloxacin (bracketed number) [7]
0.02 µg/mL: MIC [2]
4: ratio of activity per that of Ciprofloxacin (bracketed number) (S. pneumoniae 2054) | ratio of activity per that of Ciprofloxacin (bracketed number) [8] | ratio of activity per that of Ciprofloxacin (bracketed number) [13]

CN1CCN(c2c(F)cc3c(=O)c(C(=O)O)cn(C4CC4)c3c2Cl)CC1 [Example 27, 8-Chloro-1-cyclopropyl-6-fluoro-1,4-dihydro-7-(4-methyl-l-piperazinyl)4-oxoquinoline-3-carboxylic acid]
0.25: ratio of activity per that of Ciprofloxacin (bracketed number) [5] | ratio of activity per that of Ciprofloxacin (bracketed number) [18]
32: ratio of activity per that of Ciprofloxacin (bracketed number) [6] | ratio of activity per that of Ciprofloxacin (bracketed number) [14]
0.05 µg/mL: MIC (P. morganii IID 602) | MIC [10] | MIC [16] | MIC [17] | MIC [19]
0.5: ratio of activity per that of Ciprofloxacin (bracketed number) [3, 21] | ratio of activity per that of Ciprofloxacin (bracketed number) (Shigella sonnei IID 969) | ratio of activity per that of Ciprofloxacin (bracketed number) [12] | ratio of activity per that of Ciprofloxacin (bracketed number) (P. mirabilis IID 994) | ratio of activity per that of Ciprofloxacin (bracketed number) [19]
0.2 µg/mL: MIC [1] | MIC [4] | MIC [13] | MIC [15]
0.0125 µg/mL: MIC (E. coli ATCC 10536) | MIC (Shigella sonnei IID 969) | MIC [9]
12.5 ng/mL: MIC ([3]; Proteus vulgaris, IFO3167, read-out: Minimum Inhibitory Concentration)
1: ratio of activity per that of Ciprofloxacin (bracketed number) (E. coli ATCC 10536) | ratio of activity per that of Ciprofloxacin (bracketed number) [2] | ratio of activity per that of Ciprofloxacin (bracketed number) (P. morganii IID 602) | ratio of activity per that of Ciprofloxacin (bracketed number) (E. coli NIHJ JC-2) | ratio of activity per that of Ciprofloxacin (bracketed number) [10] | ratio of activity per that of Ciprofloxacin (bracketed number) [13] | ratio of activity per that of Ciprofloxacin (bracketed number) [17]
2: ratio of activity per that of Ciprofloxacin (bracketed number) (S. faecalis IID 682)
≤ 6 ng/mL: MIC (E. coli NIHJ JC-2)
0.39 µg/mL: MIC [2] | MIC (S. pneumoniae 2054) | MIC (S. faecalis IID 682)
16: ratio of activity per that of Ciprofloxacin (bracketed number) [15]
4: ratio of activity per that of Ciprofloxacin (bracketed number) (S. epidermidis IID 866) | ratio of activity per that of Ciprofloxacin (bracketed number) [4] | ratio of activity per that of Ciprofloxacin (bracketed number) [9] | ratio of activity per that of Ciprofloxacin (bracketed number) [11]
0.1 µg/mL: MIC (S. epidermidis IID 866) | MIC [6] | MIC [8] | MIC [11] | MIC [14]
0.025 µg/mL: MIC [5] | MIC [7] | MIC [12] | MIC (P. mirabilis IID 994)
1.56 µg/mL: MIC [18]

O=C(O)c1cn(C2CC2)c2c(F)c(N3CCNCC3)c(F)cc2c1=O [Reference- 1, 1-Cyclopropyl-6,8-difluoro-1,4-dihydro-4-oxo-7-(1-piperazinyl)quinoline-3-carboxylic acid, reference compound]
1: ratio of activity per that of Ciprofloxacin (bracketed number) (E. coli ATCC 10536) | ratio of activity per that of Ciprofloxacin (bracketed number) [1] | ratio of activity per that of Ciprofloxacin (bracketed number) [3, 21] | ratio of activity per that of Ciprofloxacin (bracketed number) [4] | ratio of activity per that of Ciprofloxacin (bracketed number) (Shigella sonnei IID 969) | ratio of activity per that of Ciprofloxacin (bracketed number) (E. coli NIHJ JC-2) | ratio of activity per that of Ciprofloxacin (bracketed number) [12] | ratio of activity per that of Ciprofloxacin (bracketed number) [13] | ratio of activity per that of Ciprofloxacin (bracketed number) (S. faecalis IID 682) | ratio of activity per that of Ciprofloxacin (bracketed number) [18]
≤ 6 ng/mL: MIC [3, 20]
0.1 µg/mL: MIC [16]
4: ratio of activity per that of Ciprofloxacin (bracketed number) [14] | ratio of activity per that of Ciprofloxacin (bracketed number) [16]
0.02 µg/mL: MIC [2]
1.56 µg/mL: MIC [15]
0.0125 µg/mL: MIC (E. coli ATCC 10536) | MIC [5] | MIC [7] | MIC [19]
0.025 µg/mL: MIC (P. morganii IID 602) | MIC [9] | MIC [10] | MIC [17]
0.39 µg/mL: MIC [18]
0.2 µg/mL: MIC (S. epidermidis IID 866) | MIC [8] | MIC [11] | MIC [13]
0.78 µg/mL: MIC [4] | MIC [6] | MIC [14] | MIC (S. faecalis IID 682)
0.5: ratio of activity per that of Ciprofloxacin (bracketed number) [5]
≤ 0.006 µg/mL: MIC (P. mirabilis IID 994)
2: ratio of activity per that of Ciprofloxacin (bracketed number) (S. epidermidis IID 866) | ratio of activity per that of Ciprofloxacin (bracketed number) [2] | ratio of activity per that of Ciprofloxacin (bracketed number) (S. pneumoniae 2054) | ratio of activity per that of Ciprofloxacin (bracketed number) (P. morganii IID 602) | ratio of activity per that of Ciprofloxacin (bracketed number) [7] | ratio of activity per that of Ciprofloxacin (bracketed number) [8] | ratio of activity per that of Ciprofloxacin (bracketed number) [9] | ratio of activity per that of Ciprofloxacin (bracketed number) [10] | ratio of activity per that of Ciprofloxacin (bracketed number) [11] | ratio of activity per that of Ciprofloxacin (bracketed number) [15] | ratio of activity per that of Ciprofloxacin (bracketed number) [17] | ratio of activity per that of Ciprofloxacin (bracketed number) (P. mirabilis IID 994)
